{
  "source": "patent US12024510B2",
  "about": "“Pyrazolopyridine-diamides, their use as insecticide and processes for preparing the same” (PI INDUSTRIES LTD., priority 2017, dated 2024)",
  "system": "Plutella xylostella",
  "assay": "whole plant or invertebrate",
  "assay_type": "in vivo",
  "conditions": "foliar, cabbage leaf dip, second instar larvae, dead and moribund combined, 72 h after release",
  "method": "Test Solutions were Prepared According to the Procedure Described Herein Below (500 PPM):\n• 1. Eppendorf Vortex mixer (ThermoMixer C) and 1.5 mL Eppendorf tubes • 2. Zirconia (Zirconium-Yttrium) beads having diameter of 0.8 to 1.0 mm • 3. Microscope • 4. Beaker 100 mL • 5. Micro-pipette Reagents: • 1. Surfactant Solution • 2. De-mineralized (DM) Water • 1. Weigh 10 mg of the compound of the present invention to be tested in an Eppendorf Tube. • 2. Add 200 mg of the Surfactant Solution into the tube. • 3. Add 600 mg of Zirconia beads into the above mixture. • 4. Fix the tube in Eppendorf Vortex mixer and start vortexing at 2000 rpm. • 5. Mix on Vortex mixer for 30 minutes. After 30 minutes, observe the sample over a microscope at 400× resolution. • 6. If the Maximum particle size is more than 5 μm or average particle size is more than 2 μm or the particle size distribution is uneven, continue vortexing for another 30 minutes and again check the particle size using the microscope. Continue till the average particle size is below 2 microns. • 7. When the required particle size is achieved, add 1.0 mL DM water into the tube, close the cap, shake the tube thoroughly and transfer the contents, along with the beads, into a beaker. • 8. To rinse the tube, add another 1.0 mL of DM water into the tube, close the cap, shake well and transfer this into the same beaker. • 9. Repeat Step no. 8 one more time so that the tube is rinsed well and the compound of the present invention to be tested is transferred to the beaker. • 10. Add 16.8 mL of DM water into the beaker and stir well. • 11. The homogeneous dispersion can then be decanted into a glass vial, immediately, to separate the Zirconia beads. • 12. Immediately use this sample for biological testing. • 13. Further dilutions can be prepared by taking appropriate quantity of the aliquot of Step 10, immediately after stirring, and diluting as per requirement. The sample solution must be well mixed just before biological testing.\nLeaf dip method was used for screening, wherein the required quantity of the compounds were weighed and dissolved in the test solution into the tube and vortex at 2000 rpm with Zirconia beads for 90 min for proper mixing, then mixed with 0.01% Triton-X solution to get the desired test concentration. Cabbage leaves were dipped in the solution for 10 seconds, shade dried for 20 min and then transferred to bioassay trays. Single second instar larva was released into each cell and the tray was covered with lid. The bio-assay trays were kept under laboratory conditions at a temperature of 25° C. and relative humidity of 70%. Observations on dead, moribund and live larvae were recorded at 72 h after the release. Percent mortality was calculated by combining dead and moribund larvae. The following compound num.",
  "data": [
    {"smiles": "CCCNC(=O)c1c(NC(=O)c2cc(OCC(F)(F)F)nn2-c2ncccc2Cl)c(C)cc2ccnn12", "note": "[Compound 11, 6-(1-(3-chloropyridin-2-yl)-3-(2,2,2-trifluoroethoxy)-1H-pyrazole-5-carboxamido)-5-methyl-N-propylpyrazolo[1,5-a]pyridine-7-carboxamide]", "values": [
      {"measurement": "mortality at 300 ppm", "result": "> 70", "unit": "%"}
    ]},
    {"smiles": "Cc1cc2ccnn2c(C(=O)N2CC(F)(F)C2)c1NC(=O)c1cc(Br)nn1-c1ncccc1Cl", "note": "[Compound 23, 3-bromo-1-(3-chloropyridin-2-yl)-N-(7-(3,3-difluoroazetidine-1-carbonyl)-5-methylpyrazolo[1,5-a]pyridin-6-yl)-1H-pyrazole-5-carboxamide]", "values": [
      {"measurement": "mortality at 300 ppm", "result": "> 70", "unit": "%"}
    ]},
    {"smiles": "Cc1cc2ccnn2c(C(=O)N2CCC2)c1NC(=O)c1cc(Br)nn1-c1ncccc1Cl", "note": "[Compound 34, N-(7-(azetidine-1-carbonyl)-5-methylpyrazolo[1,5-a]pyridin-6-yl)-3-bromo-1-(3-chloropyridin-2-yl)-1H-pyrazole-5-carboxamide]", "values": [
      {"measurement": "mortality at 300 ppm", "result": "> 70", "unit": "%"}
    ]},
    {"smiles": "COc1cc(C(=O)Nc2c(C)cc3ccnn3c2C(=O)N2CC(F)(F)C2)n(-c2ncccc2Cl)n1", "note": "[Compound 39, 1-(3-chloropyridin-2-yl)-N-(7-(3,3-difluoroazetidine-1-carbonyl)-5-methylpyrazolo[1,5-a]pyridin-6-yl)-3-methoxy-1H-pyrazole-5-carboxamide]", "values": [
      {"measurement": "mortality at 300 ppm", "result": "> 70", "unit": "%"}
    ]},
    {"smiles": "C#CCNC(=O)c1c(NC(=O)c2cc(OCC(F)(F)F)nn2-c2ncccc2Cl)c(C)cc2ccnn12", "note": "[Compound 48, 6-(1-(3-chloropyridin-2-yl)-3-(2,2,2-trifluoroethoxy)-1H-pyrazole-5-carboxamido)-5-methyl-N-(prop-2-yn-1-yl)pyrazolo[1,5-a]pyridine-7-carboxamide]", "values": [
      {"measurement": "mortality at 300 ppm", "result": "> 70", "unit": "%"}
    ]},
    {"smiles": "CNC(=O)c1c(NC(=O)c2cc(Oc3cc(C(F)(F)F)nn3C)nn2-c2ncccc2Cl)c(C)cc2ccnn12", "note": "[Compound 69, 6-(1-(3-chloropyridin-2-yl)-3-((1-methyl-3-(trifluoromethyl)-1H-pyrazol-5-yl)oxy)-1H-pyrazole-5-carboxamido)-N,5-dimethylpyrazolo[1,5-a]pyridine-7-carboxamide]", "values": [
      {"measurement": "mortality at 300 ppm", "result": "> 70", "unit": "%"}
    ]},
    {"smiles": "CCNC(=O)c1c(NC(=O)c2cc(Oc3cc(C(F)(F)F)nn3C)nn2-c2ncccc2Cl)c(C)cc2ccnn12", "note": "[Compound 70, 6-(1-(3-chloropyridin-2-yl)-3-((1-methyl-3-(trifluoromethyl)-1H-pyrazol-5-yl)oxy)-1H-pyrazole-5-carboxamido)-N-ethyl-5-methylpyrazolo[1,5-a]pyridine-7-carboxamide]", "values": [
      {"measurement": "mortality at 300 ppm", "result": "> 70", "unit": "%"}
    ]},
    {"smiles": "Cc1cc2ccnn2c(C(=O)NC2CC2)c1NC(=O)c1cc(Oc2cc(C(F)(F)F)nn2C)nn1-c1ncccc1Cl", "note": "[Compound 79, 6-(1-(3-chloropyridin-2-yl)-3-((1-methyl-3-(trifluoromethyl)-1H-pyrazol-5-yl)oxy)-1H-pyrazole-5-carboxamido)-N-cyclopropyl-5-methylpyrazolo[1,5-a]pyridine-7-carboxamide]", "values": [
      {"measurement": "mortality at 300 ppm", "result": "> 70", "unit": "%"}
    ]},
    {"smiles": "Cc1cc2ccnn2c(C(=O)NCC2CC2)c1NC(=O)c1cc(Oc2cc(C(F)(F)F)nn2C)nn1-c1ncccc1Cl", "note": "[Compound 80, 6-(1-(3-chloropyridin-2-yl)-3-((1-methyl-3-(trifluoromethyl)-1H-pyrazol-5-yl)oxy)-1H-pyrazole-5-carboxamido)-N-(cyclopropylmethyl)-5-methylpyrazolo[1,5-a]pyridine-7-carboxamide]", "values": [
      {"measurement": "mortality at 300 ppm", "result": "> 70", "unit": "%"}
    ]},
    {"smiles": "COCCNC(=O)c1c(NC(=O)c2cc(Br)nn2-c2ncccc2Cl)c(Br)cc2ccnn12", "note": "[Compound 88, 5-bromo-6-(3-bromo-1-(3-chloropyridin-2-yl)-1H-pyrazole-5-carboxamido)-N-(2-methoxyethyl)pyrazolo[1,5-a]pyridine-7-carboxamide]", "values": [
      {"measurement": "mortality at 300 ppm", "result": "> 70", "unit": "%"}
    ]},
    {"smiles": "CCCNC(=O)c1c(NC(=O)c2cc(OC3CSC3)nn2-c2ncccc2Cl)c(C)cc2ccnn12", "note": "[Compound 103, 6-(1-(3-chloropyridin-2-yl)-3-(thietan-3-yloxy)-1H-pyrazole-5-carboxamido)-5-methyl-N-propylpyrazolo[1,5-a]pyridine-7-carboxamide]", "values": [
      {"measurement": "mortality at 300 ppm", "result": "> 70", "unit": "%"}
    ]},
    {"smiles": "CNC(=O)c1c(NC(=O)c2cc(C(F)(F)F)nn2-c2ncccc2Cl)c(Br)cc2ccnn12", "note": "[Compound 104, 5-bromo-6-(1-(3-chloropyridin-2-yl)-3-(trifluoromethyl)-1H-pyrazole-5-carboxamido)-N-methylpyrazolo[1,5-a]pyridine-7-carboxamide]", "values": [
      {"measurement": "mortality at 300 ppm", "result": "> 70", "unit": "%"}
    ]},
    {"smiles": "Cc1cc2ccnn2c(C(=O)NOC(C)C)c1NC(=O)c1cc(Br)nn1-c1ncccc1Cl", "note": "[Compound 105, 6-(3-bromo-1-(3-chloropyridin-2-yl)-1H-pyrazole-5-carboxamido)-N-isopropoxy-5-methylpyrazolo[1,5-a]pyridine-7-carboxamide]", "values": [
      {"measurement": "mortality at 300 ppm", "result": "> 70", "unit": "%"}
    ]},
    {"smiles": "COc1cc(C(=O)Nc2c(C)cc3ccnn3c2C(N)=O)n(-c2ncccc2Cl)n1", "note": "[Compound 111, 6-(1-(3-chloropyridin-2-yl)-3-methoxy-1H-pyrazole-5-carboxamido)-5-methylpyrazolo[1,5-a]pyridine-7-carboxamide]", "values": [
      {"measurement": "mortality at 300 ppm", "result": "> 70", "unit": "%"}
    ]},
    {"smiles": "CCONC(=O)c1c(NC(=O)c2cc(OC)nn2-c2ncccc2Cl)c(C)cc2ccnn12", "note": "[Compound 112, 6-(1-(3-chloropyridin-2-yl)-3-methoxy-1H-pyrazole-5-carboxamido)-N-ethoxy-5-methylpyrazolo[1,5-a]pyridine-7-carboxamide]", "values": [
      {"measurement": "mortality at 300 ppm", "result": "> 70", "unit": "%"}
    ]},
    {"smiles": "COc1cc(C(=O)Nc2c(C)cc3ccnn3c2C(=O)NOC(C)C)n(-c2ncccc2Cl)n1", "note": "[Compound 113, 6-(1-(3-chloropyridin-2-yl)-3-methoxy-1H-pyrazole-5-carboxamido)-N-isopropoxy-5-methylpyrazolo[1,5-a]pyridine-7-carboxamide]", "values": [
      {"measurement": "mortality at 300 ppm", "result": "> 70", "unit": "%"}
    ]},
    {"smiles": "COCCNC(=O)c1c(NC(=O)c2cc(C(F)(F)F)nn2-c2ncccc2Cl)c(C)cc2ccnn12", "note": "[Compound 118, 6-(1-(3-chloropyridin-2-yl)-3-(trifluoromethyl)-1H-pyrazole-5-carboxamido)-N-(2-methoxyethyl)-5-methylpyrazolo[1,5-a]pyridine-7-carboxamide]", "values": [
      {"measurement": "mortality at 300 ppm", "result": "> 70", "unit": "%"}
    ]},
    {"smiles": "Cc1cc2ccnn2c(C(=O)NC2CONC2=O)c1NC(=O)c1cc(C(F)(F)F)nn1-c1ncccc1Cl", "note": "(stereo not drawn) [Compound 128, 6-(1-(3-chloropyridin-2-yl)-3-(trifluoromethyl)-1H-pyrazole-5-carboxamido)-5-methyl-N-(3-oxoisoxazolidin-4-yl)pyrazolo[1,5-a]pyridine-7-carboxamide]", "values": [
      {"measurement": "mortality at 300 ppm", "result": "> 70", "unit": "%"}
    ]},
    {"smiles": "O=C(Nc1c(Br)cc2ccnn2c1C(=O)NC1CONC1=O)c1cc(C(F)(F)F)nn1-c1ncccc1Cl", "note": "(stereo not drawn) [Compound 129, 5-bromo-6-(1-(3-chloropyridin-2-yl)-3-(trifluoromethyl)-1H-pyrazole-5-carboxamido)-N-(3-oxoisoxazolidin-4-yl)pyrazolo[1,5-a]pyridine-7-carboxamide]", "values": [
      {"measurement": "mortality at 300 ppm", "result": "> 70", "unit": "%"}
    ]},
    {"smiles": "CCNC(=O)c1c(NC(=O)c2cc(OC3CSC3)nn2-c2ncccc2Cl)c(C)cc2ccnn12", "note": "[Compound 144, 6-(1-(3-chloropyridin-2-yl)-3-(thietan-3-yloxy)-1H-pyrazole-5-carboxamido)-N-ethyl-5-methylpyrazolo[1,5-a]pyridine-7-carboxamide]", "values": [
      {"measurement": "mortality at 300 ppm", "result": "> 70", "unit": "%"}
    ]},
    {"smiles": "COc1cc(C(=O)Nc2c(Cl)cc3ccnn3c2C(=O)NCC#N)n(-c2ncccc2Cl)n1", "note": "[Compound 149, 5-chloro-6-(1-(3-chloropyridin-2-yl)-3-methoxy-1H-pyrazole-5-carboxamido)-N-(cyanomethyl)pyrazolo[1,5-a]pyridine-7-carboxamide]", "values": [
      {"measurement": "mortality at 300 ppm", "result": "> 70", "unit": "%"}
    ]},
    {"smiles": "CONC(=O)c1c(NC(=O)c2cc(OC)nn2-c2ncccc2Cl)c(Cl)cc2ccnn12", "note": "[Compound 150, 5-chloro-6-(1-(3-chloropyridin-2-yl)-3-methoxy-1H-pyrazole-5-carboxamido)-N-methoxypyrazolo[1,5-a]pyridine-7-carboxamide]", "values": [
      {"measurement": "mortality at 300 ppm", "result": "> 70", "unit": "%"}
    ]},
    {"smiles": "CONC(=O)c1c(NC(=O)c2cc(Br)nn2-c2ncccc2Cl)ccc2ccnn12", "note": "[Compound 163, 6-(3-bromo-1-(3-chloropyridin-2-yl)-1H-pyrazole-5-carboxamido)-N-methoxypyrazolo[1,5-a]pyridine-7-carboxamide]", "values": [
      {"measurement": "mortality at 300 ppm", "result": "> 70", "unit": "%"}
    ]},
    {"smiles": "CCC(CC)NC(=O)c1c(NC(=O)c2cc(Br)nn2-c2ncccc2Cl)c(C)cc2ccnn12", "note": "[Compound 185, 6-(3-bromo-1-(3-chloropyridin-2-yl)-1H-pyrazole-5-carboxamido)-5-methyl-N-(pentan-3-yl)pyrazolo[1,5-a]pyridine-7-carboxamide]", "values": [
      {"measurement": "mortality at 300 ppm", "result": "> 70", "unit": "%"}
    ]}
  ]
}
